# Measured values: patent US8710091B2, “Imidazolidine-2,4-dione derivatives, and use thereof as a cancer drug” (Ipsen Pharma S.A.S., priority 2009, dated 2014)
# What was measured:
# Type in all cases: cell-based
# LNCaP cells [1] = assay: Anti-proliferative activity on LNCaP in complete medium (WST-1); conditions: Homo sapiens, 144 h, 144 h incubation, read-out: IC50 on the LNCaP cells in culture (concentration inhibiting cell proliferation by 50%)
# Method: The anti-proliferative activity of the compounds of the present invention is determined on LNCaP in complete medium by applying the following experimental procedure:
# The LNCaP cell type (ATCC, 1740) originating from a prostate carcinoma expressing the androgen receptor, this line is hormone-dependent.
# Maintenance of the LNCaP line is carried out in complete culture medium: RPMI, 10% of foetal calf serum, 2 mM glutamine, 100 U/ml penicillin, 0.1 mg/ml of streptomycin and 0.01M HEPES, 1 mM sodium pyruvate, 40% of D-glucose. • Seeding the plates:
# The LNCaP line is seeded at 20,000 cells/well in 90 μl of complete medium in 96-well plates coated with poly-D-lysine (Biocoat, Costar). • Treatment of the cells: 24 h after the seeding, the cells are treated with 10 μl/well of compound diluted in the culture medium. Experiments of the effect of doses of the compound are carried out on a scale of 1 nM to 100 µM. The concentrations used are the following: 1 nM/10/30/100/300/1000/3000/10,000/100,000 nM. Testosterone (SIGMA T1500) is used as a reference and tested at the same concentrations. The cells are incubated for 144 h at 37° C., 5% CO2. • Reading: On D6, 10 μL of the “WST-1 cell proliferation” reagent (Roche ref 1644807) is added to each well. After incubation for 2 hours at 37° C., 5% CO2, the absorbance at 450 nm is measured by spectrophotometry (Envision, Perkin Elmer). • Results: The experiments are carried out in duplicate and the best compounds are tested twice. […] 2. Antiproliferative Activity on LNCaP in Medium without Steroids: […]
# DU145 cells = assay: Antiproliferative activity on DU-145 in complete medium (WST-1); conditions: Homo sapiens, 144 h incubation, read-out: IC50 on the DU145 cells in culture (concentration inhibiting cell proliferation by 50%)
# Method: The anti-proliferative activity of the compounds of the present invention is determined on DU-145 in complete medium.
# Maintenance of the DU-145 line is carried out in DMEM, 10% of foetal calf serum, 2 mM of glutamine, 100 U/ml of penicillin, 0.1 mg/ml of streptomycin. • Seeding the plates: • The DU145 line is seeded at 400 or 800 cells/well in 90 μl of DMEM complete medium in 96-well plates (TPP). • Treatment of the cells: 24 h after the seeding, the cells are treated with 10 μl/well of compound diluted in the culture medium. Experiments showing the dose-effect of the compound are carried out on a scale of 1 nM to 100 μM. The concentrations used are the following: 1 nM/10/30/100/300/1000/3000/10,000/100,000 nM. The cells are incubated for 144 h at 37° C., 5% CO2. • Reading: On D6, 10 μL, of cell proliferation reagent WST-1 (Roche ref 1644807) is added to each well. After incubation for 2 to 4 hours at 37° C., 5% CO2, the absorbance at 450 nm is measured by spectrophotometry (Envision, Perkin Elmer). • Results: The experiments are carried out in duplicate and the best compounds are tested twice. […] 4. Measurement of the Disappearance of the Androgen Receptor
# LNCaP cells [2] = assay: Antiproliferative activity on LNCaP in medium without steroids (WST-1); conditions: 144 h, 1 nM to 100 μM
# Method: The anti-proliferative activity of the compounds of the present invention is determined on LNCaP in medium without steroids.
# The maintenance of the LNCaP line is carried out under the usual conditions in RPMI, 10% of foetal calf serum, 2 mM of glutamine, 100 U/ml of penicillin, 0.1 mg/ml of streptomycin and 0.01M HEPES, 1 mM sodium pyruvate, 40% of D-glucose.
# For the study under conditions without steroids, 24 hours before the seeding the culture medium of the cells is eliminated. The cells are washed with PBS, then incubated in the presence of RPMI medium without phenol red, 10% of foetal calf serum without steroids (treatment with carbon), 2 mM of glutamine, 100 U/ml of penicillin, 0.1 mg/ml of streptomycin and 0.01M HEPES, 1 mM of sodium pyruvate, 40% of D-glucose. • Seeding the plates:
# The LNCaP line is seeded at 20,000 cells/well in 90 μl of RPMI medium with 10% foetal calf serum without steroids in 96-well plates coated with poly-D-lysine (Biocoat, Costar). • Treatment of the cells: 24 h after seeding, the cells are treated with 10 μl/well of compound diluted in the culture medium. Experiments showing the dose-effect of the compound are carried out on a scale of 1 nM to 100 μM. The concentrations used are the following: 1 nM/10/30/100/300/1000/3000/10,000/100,000 nM. Testosterone (SIGMA T1500) is used as a reference and tested at the same concentrations. The cells are incubated for 144 h at 37° C., 5% CO2. • Reading: On D6, 10 μL of cell proliferation reagent WST-1 (Roche ref 1644807) is added to each well. After incubation for 2 to 4 hours at 37° C., 5% CO2, the absorbance at 450 nm is measured by spectrophotometry (Envision, Perkin Elmer). • Results: The experiments are carried out in duplicate and the best compounds are tested twice. […] 3. Antiproliferative Activity on DU-145 in Complete Medium: […]
Structure (SMILES),IC50 (LNCaP cells [1]) [µM],IC50 (DU145 cells) [µM],effect on the cell proliferation of LNCaP cultured in medium without steroids (FIG. 1) (LNCaP cells [2])
"Cc1cc(N2C(=O)N(CCCCCCCCC[S+]([O-])CCCC(F)(F)C(F)(F)F)C(C)(C)C2=O)ccc1[N+](=O)[O-] (stereo not shown) [Example 24, 5,5-dimethyl-3-(3-methyl-4-nitrophenyl)-1-{9-[(4,4,5,5,5-pentafluoropentyl)sulphinyl]nonyl}imidazolidine-2,4-dione]",< 2,> 10,
"CCC(C)NC(=O)Nc1ccc(N2C(=O)N(CCCCCCCCC[S+]([O-])CCCC(F)(F)C(F)(F)F)C(C)(C)C2=O)cc1C (stereo not shown) [Example 28, 1-[4-(4,4-dimethyl-2,5-dioxo-3-{9-[(4,4,5,5,5-pentafluoropentyl)sulphinyl]nonyl}imidazolidin-1-yl)-2-methylphenyl]-3-(1-methylpropyl)urea]",< 2,> 10,
"Cc1cc(N2C(=O)N(CCCCCCCCCSCCCC(F)(F)C(F)(F)F)C(C)(C)C2=O)ccc1NS(N)(=O)=O [Example 30, N-[4-(4,4-dimethyl-2,5-dioxo-3-{9-[(4,4,5,5,5-pentafluoropentyl)sulphanyl]nonyl}imidazolidin-1-yl)-2-methylphenyl]sulphamide]",< 2,> 10,
"Cc1cc(N2C(=O)N(CCCCCCCCC[S+]([O-])CCCC(F)(F)C(F)(F)F)C(C)(C)C2=O)ccc1NS(N)(=O)=O (stereo not shown) [Example 31, N-[4-(4,4-dimethyl-2,5-dioxo-3-{9-[(4,4,5,5,5-pentafluoropentyl)sulphinyl]nonyl}imidazolidin-1-yl)-2-methylphenyl]sulphamide]",< 2,> 10,
"Cc1cc(N2C(=O)N(CCCCCCCCCS(=O)(=O)CCCC(F)(F)C(F)(F)F)C(C)(C)C2=O)ccc1NS(N)(=O)=O [Example 32, N-[4-(4,4-dimethyl-2,5-dioxo-3-{9-[(4,4,5,5,5-pentafluoropentyl)sulphonyl]nonyl}imidazolidin-1-yl)-2-methylphenyl]sulphamide]",< 2,> 10,
"O=C1N(c2ccc([N+](=O)[O-])c(C(F)(F)F)c2)C(=O)C2(CCC2)N1CCCCCCCCC[S+]([O-])CCCC(F)(F)C(F)(F)F (stereo not shown) [Example 34, 7-[4-nitro-3-(trifluoromethyl)phenyl]-5-{9-[(4,4,5,5,5-pentafluoropentyl)sulphinyl]nonyl}-5,7-diazaspiro[3.4]octane-6,8-dione]",< 2,> 10,
"CC1(C)C(=O)N(c2ccc([N+](=O)[O-])c(C(F)(F)F)c2)C(=O)N1CCOCCOCC[S+]([O-])CCCC(F)(F)C(F)(F)F (stereo not shown) [Example 37, 5,5-dimethyl-3-[4-nitro-3-(trifluoromethyl)phenyl]-1-[2-(2-{2-[(4,4,5,5,5-pentafluoropentyl)sulphinyl]ethoxy}ethoxy)ethyl]imidazolidine-2,4-dione]",< 2,> 10,
"CC(=O)N(C)c1ccc(N2C(=O)N(CCCCCCCCC[S+]([O-])CCCC(F)(F)C(F)(F)F)C(C)(C)C2=O)cc1C(F)(F)F (stereo not shown) [Example 40, N-[4-(4,4-dimethyl-2,5-dioxo-3-{9-[(4,4,5,5,5-pentafluoropentyl)sulphinyl]nonyl}imidazolidin-1-yl)-2-(trifluoromethyl)phenyl]-N-methylacetamide]",< 2,> 10,
"CN(C)CC(=O)Nc1ccc(N2C(=O)N(CCCCCCCCCSCCCC(F)(F)C(F)(F)F)C(C)(C)C2=O)cc1C(F)(F)F [Example 42, N-[4-(4,4-dimethyl-2,5-dioxo-3-{9-[(4,4,5,5,5-pentafluoropentyl)sulphanyl]nonyl}imidazolidin-1-yl)-2-(trifluoromethyl)phenyl]-N^2,N^2-dimethylglycinamide]",< 2,> 10,
"CC1(C)NC(=O)N(c2ccc([N+](=O)[O-])c(C(F)(F)F)c2)C1=O [nilutamide, reference compound]",,,biphasic profile with an agonist activity at low concentration followed by an inhibitory activity at high concentration
